{
  "source": "paper PMC5650142",
  "about": "“GPR40 partial agonists and AgoPAMs: Differentiating effects on glucose and hormonal secretions in the rodent” (PLoS ONE, 2017)",
  "system": "wild type C57BL/6 and GLP-1R-/- mice",
  "test": "Mouse glucose tolerance test (IPGTT, wild type and GLP-1R-/- mice)",
  "assay_type": "in vivo",
  "design": "Blood Glucose Net AUC: unit not given here",
  "conditions": "for Blood Glucose / Plasma Insulin: 30 mpk, 30 mg/kg; for Blood Glucose Net AUC: @ 30, individual animals",
  "description": "Wild type C57BL/6 mice and GLP-1R^-/- mice were fed a high fat diet (D12492i, Research Diets) for 6 weeks prior to GTT. On the day of study, mice were fasted at 1 h post lights on, and body weights were measured. […] Mice were then dosed PO at a volume of 10 ml/kg with vehicle (0.5% methylcellulose), MK-2305 (a GPR40 partial agonist described in Hauge et al) at 10 mg/kg, or AP1 at 30 mg/kg. Dosages of MK-2305 and AP1 were administered at maximal efficacious doses as determined by acute dose titrations with efficacy determined via reduction in glucose during an IPGTT (data not shown). […] Blood glucose was measured again (time = 0) just prior to an intraperitoneal (IP) dextrose challenge of 1 g/kg at 10 ml/kg dose volume (Dextrose, Hospira Inc., Lake Forrest IL). A subset of vehicle treated mice was injected with 0.9% NaCl saline to serve as negative control. Blood glucose was then measured at 10, 20, 40, 60, and 120 min after challenge. To capture insulin secretion during the IPGTT, blood via tail vein was collected at t = - 60, 0, 10, 20, 40, 60 min post challenge.\nNet AUC was calculated by subtracting the average AUC of the saline group from each groups’ total AUC.\nBlood for insulin, glucagon, GLP-1, GIP, and PYY measurements was collected into K2EDTA Microtainer tubes (BD, Franklin Lakes, NJ) pre-treated with DPP4 inhibitor (Millipore, Billerica, MA) and cOmplete™ Protease Inhibitor Cocktail Tablets (Roche Diagnostics, Indianapolis, IN). Tubes were centrifuged for 10 minutes at 5000 RPM, and plasma was aliquotted for analysis. Plasma insulin levels were measured via EIA (Mesoscale Discovery ELISA Kit, Gaithersburg MD). Rat plasma total GLP-1 was measured using Total GLP-1 (ver.2) Assay Kit (Cat#: K150JVC). The measurement of active GLP-1 was carried out in a similar manner as that described for total GLP-1 assay with the exception that MSD Active GLP-1 (ver. 2) assay kit (Cat# K150JWC) was used. Rat plasma glucagon was measured using an in-house glucagon assay developed as a MSD format sandwich immunoassay (Merck & Co., Inc., MRL, Kenilworth, NJ USA). The antibody specificity was cross validated via mass- spec using procedures described in Lee et al. Briefly, MSD Streptavidin Gold plates were coated with 2 μg/ml biotin mouse monoclonal antibody generated to glucagon. Test samples were added to the plates and a separate Sulfo- tagged monoclonal antibody was used to detect the captured glucagon protein (2 μg/ml). The ELISA was carried out in the standard reagents in the MSD format. The plate was read on the SECTOR Imager 6000 Reader. Metabolic hormones GIP (Gastric Inhibitory Polypeptide) and PYY (Peptide YY) were measured in rat plasma using the Rat Metabolic Magnetic Bead Panel (EMD Millipore, Billerica, MA). The assay was performed according to manufacturer protocol.",
  "key": {"[1]": {"conditions": "GLP-1R-/- and wild type mice, MK-2305 10 mg/kg, AP1 30 mg/kg PO"}, "[2]": {"conditions": "KO mice, Time 0, individual animals"}, "[3]": {"conditions": "KO mice, Time 10, individual animals"}, "[4]": {"conditions": "KO mice, Time 20, individual animals"}, "[5]": {"conditions": "KO mice, Time 40, individual animals"}, "[6]": {"conditions": "KO mice, Time 60, individual animals"}, "[7]": {"conditions": "KO mice, Time -60, individual animals"}, "[8]": {"conditions": "WT mice, Time 0, individual animals"}, "[9]": {"conditions": "WT mice, Time 10, individual animals"}, "[10]": {"conditions": "WT mice, Time 20, individual animals"}, "[11]": {"conditions": "WT mice, Time 60, individual animals"}, "[12]": {"conditions": "WT mice, Time -60, individual animals"}},
  "note": "“And” between values parts separate entries of the source, which are not always exact repeats. Equal entries are not always repeated.",
  "data": [
    {"smiles": "COc1ccc(F)c(-c2ccc([C@@H]3CCc4ccc([C@H](C5CC5)[C@H](C)C(=O)O)cc4O3)cc2)c1", "note": "[AP1]", "values": [
      {"measurement": "blood glucose excursion during IPGTT", "setting": "[1]", "result": "reduced"},
      {"measurement": "insulin following dextrose challenge (IPGTT)", "setting": "[1]", "result": "increased insulin following the dextrose challenge in both knockout and wild type mice"},
      {"measurement": "Blood Glucose", "setting": "[2]", "result": "84 mg/dL and 106 mg/dL and 108 mg/dL and 102 mg/dL and 90 mg/dL and 97 mg/dL and 104 mg/dL"},
      {"measurement": "Plasma Insulin", "setting": "[2]", "result": "1.042 ng/ml and 1.305 ng/ml and 1.695* ng/ml and 1.425 ng/ml and 1.092 ng/ml and 1.099 ng/ml and 1.131 ng/ml"},
      {"measurement": "Blood Glucose", "setting": "[3]", "result": "140 mg/dl and 143 mg/dl (2×) and 241 mg/dl and 103 mg/dl and 112 mg/dl and 152 mg/dl"},
      {"measurement": "Plasma Insulin", "setting": "[3]", "result": "1.818 ng/ml and 1.304 ng/ml and 8.134* ng/ml and 2.799 ng/ml and 1.233 ng/ml and 2.777 ng/ml and 1.836 ng/ml"},
      {"measurement": "Blood Glucose", "setting": "[4]", "result": "79 mg/dL and 107 mg/dL and 145 mg/dL and 126 mg/dL and 76 mg/dL and 80 mg/dL and 104 mg/dL"},
      {"measurement": "Plasma Insulin", "setting": "[4]", "result": "1.06 ng/ml and 0.804 ng/ml and 3.066* ng/ml and 1.963 ng/ml and 0.693 ng/ml and 1.694 ng/ml and 1.832 ng/ml"},
      {"measurement": "Blood Glucose", "setting": "[5]", "result": "58 mg/dL and 108 mg/dL"},
      {"measurement": "Plasma Insulin", "setting": "[5]", "result": "0.728 ng/ml and 0.449 ng/ml and 1.028* ng/ml and 0.546 ng/ml and 0.513 ng/ml and 0.552 ng/ml and 0.628 ng/ml"},
      {"measurement": "Blood Glucose", "setting": "[6]", "result": "75 mg/dL and 116 mg/dL and 106 mg/dL and 69 mg/dL and 92 mg/dL and 78 mg/dL and 110 mg/dL"},
      {"measurement": "Plasma Insulin", "setting": "[6]", "result": "0.445 ng/ml and 0.264 ng/ml and 0.373* ng/ml and 0.39 ng/ml and 0.327 ng/ml and 0.218 ng/ml and 0.377 ng/ml"},
      {"measurement": "Blood Glucose", "setting": "KO mice, Time 120, individual animals", "result": "66 mg/dL and 102 mg/dL and 86 mg/dL and 103 mg/dL and 77 mg/dL and 71 mg/dL and 121 mg/dL"},
      {"measurement": "Blood Glucose", "setting": "[7]", "result": "190 mg/dl and 206 mg/dl (2×) and 172 mg/dl and 181 mg/dl and 204 mg/dl and 230 mg/dl"},
      {"measurement": "Plasma Insulin", "setting": "[7]", "result": "0.47 ng/ml and 0.396 ng/ml and 1.185* ng/ml and 0.53 ng/ml and 0.25 ng/ml and 0.347 ng/ml and 0.673 ng/ml"},
      {"measurement": "Blood Glucose", "setting": "KO mice, Time -90, individual animals", "result": "196 mg/dL and 173 mg/dL and 164 mg/dL and 153 mg/dL and 203 mg/dL and 170 mg/dL and 187 mg/dL"},
      {"measurement": "Blood Glucose Net AUC", "setting": "KO mice", "result": "-16949 and -21574 and -17294 and -16394 and -19399 and -20469 and -21384"},
      {"measurement": "Blood Glucose", "setting": "[8]", "result": "89 mg/dl and 78 mg/dl and 112 mg/dl and 100 mg/dl and 85 mg/dl (2×) and 93 mg/dl"},
      {"measurement": "Plasma Insulin", "setting": "[8]", "result": "3.656 ng/ml and 8.79 ng/ml and 40.989* ng/ml and 1.246 ng/ml and 3.561 ng/ml and 1.813 ng/ml and 4.832 ng/ml"},
      {"measurement": "Blood Glucose", "setting": "[9]", "result": "166 mg/dL and 152 mg/dL and 163 mg/dL and 220 mg/dL and 195 mg/dL and 184 mg/dL and 168 mg/dL"},
      {"measurement": "Plasma Insulin", "setting": "[9]", "result": "14.251 ng/ml and 18.912 ng/ml and 38.822* ng/ml and 7.869 ng/ml and 14.176 ng/ml and 5.575 ng/ml and 12.785 ng/ml"},
      {"measurement": "Blood Glucose", "setting": "[10]", "result": "91 mg/dL and 101 mg/dL and 128 mg/dL and 137 mg/dL and 134 mg/dL and 97 mg/dL and 94 mg/dL"},
      {"measurement": "Plasma Insulin", "setting": "[10]", "result": "4.859 ng/ml and 8.657 ng/ml and 36.643* ng/ml and 4.529 ng/ml and 12.495 ng/ml and 4.309 ng/ml and 7.23 ng/ml"},
      {"measurement": "Plasma Insulin", "setting": "WT mice, Time 40, individual animals", "result": "1.713 ng/ml and 4.072 ng/ml and 12.598* ng/ml and 2.583 ng/ml and 4.314 ng/ml and 1.11 ng/ml and 3.089 ng/ml"},
      {"measurement": "Blood Glucose", "setting": "[11]", "result": "92 mg/dL and 102 mg/dL and 81 mg/dL and 87 mg/dL and 72 mg/dL and 96 mg/dL and 104 mg/dL"},
      {"measurement": "Plasma Insulin", "setting": "[11]", "result": "1.617 ng/ml and 3.058 ng/ml and 8.765* ng/ml and 1.2 ng/ml and 2.106 ng/ml and 0.602 ng/ml and 3.057 ng/ml"},
      {"measurement": "Blood Glucose", "setting": "WT mice, Time 120, individual animals", "result": "76 mg/dl and 96 mg/dl (2×) and 126 mg/dl and 113 mg/dl and 92 mg/dl and 93 mg/dl"},
      {"measurement": "Blood Glucose", "setting": "[12]", "result": "175 mg/dL and 176 mg/dL and 194 mg/dL and 178 mg/dL and 190 mg/dL and 196 mg/dL and 226 mg/dL"},
      {"measurement": "Plasma Insulin", "setting": "[12]", "result": "0.973 ng/ml (2×) and 2.15 ng/ml and 4.52* ng/ml and 0.764 ng/ml and 1.183 ng/ml and 1.616 ng/ml"},
      {"measurement": "Blood Glucose", "setting": "WT mice, Time -90, individual animals", "result": "168 mg/dL and 146 mg/dL and 183 mg/dL and 161 mg/dL and 151 mg/dL and 156 mg/dL and 176 mg/dL"},
      {"measurement": "Blood Glucose Net AUC", "setting": "WT mice", "result": "-13948 and -15303 and -14628 and -14263 and -12238 and -14078 and -14253"}
    ]}
  ]
}
